Measurements from US12377092B2, “Polycomb inhibitors and uses thereof” (FONDAZIONE ISTITUTO FIRC DI ONCOLOGIA MOLECOLARE (IFOM), priority 2017, dated 2025).

Assays:
[1] = test system: Axin2, Serpin1, Id1, Hes1 and Dll4; assay: Real-time PCR of target genes of β-catenin, TGFβ and Delta-Notch pathways, wild type and CCM3 knock out cells; assay type: cell-based, mouse; settings: PTC209 72 hours
Procedure: RNA extraction was performed both with (A) RNeasy kits (Promega) or (B) RNAeasy Mini Kit (QIAGEN). The latter allows also the extraction of proteins from the same sample. The RNA (500 ng) was reverse transcribed with random hexamers (High Capacity cDNA Archive kits; Applied Biosystems) in a final volume of 30 uL. Reaction were made with a thermocycler (Eppendorf) 10 min at 25° C. followed by 2 hours at 37° C. cDNA (5 ng) was amplified in triplicate in a reaction volume of 15 uL using TaqMan Gene Expression Assays (Applied Biosystems) in a ABI/Prism 7900 HT using a pre PCR step of 10 min at 95° C., followed by 40 cycles of 15 seconds at 95° C. and 60 seconds at 60° C. For each sample, the expression level was determined with the comparative threshold cycle (Ct) method, and normalized to the housekeeping genes encoding 18S, glyceraldehyde-3-phosphate dehydrogenase (GAPDH) and hypoxanthine-guanine phosphoribosyltransferase (hprt1). Ct or threshold cycle, represents the PCR cycle at which an increase in reporter fluorescence above a base-line signal can first be detect.
To perform these experiments, wild type and CCM3 knock out cells were treated with PTC209 with the same experimental conditions described before, and subsequently lysed for gene expression analysis.
Axin2 was checked as evidence of β-catenin pathway activation (FIG. 25A), Serpin1 and Id1 for TGFβ signalling (FIG. 25B), while Hes1 and Dll4 for Notch pathway activation (FIG. 25C).

LEF1 = assay: Immunofluorescence of LEF1, CCM3 knock out cells; assay type: cell-based, mouse; settings: PTC209 vs DMSO
Source text: The inventors started to analysed interaction between Bmi1 and β-catenin pathway. By immunofluorescence analysis on wild type and CCM3 knock out cells treated with PTC209 and DMSO as control, as already mentioned, the inventors checked expression of LEF1, a transcription factor that is directly activated by β-catenin and is responsible for transcriptional activation of Axin2 (Behrens et al., 1996), to see whether Bmi1 inhibition interfered with β-catenin pathway activation.

[2] = CCM3 knock out cells (pathological conditions)
[3] = CCM3 knock out cells (pathological)
[4] = wild type cells (physiological)

## COc1cc(Br)c(Nc2nc(-c3c(C)nc4ncccn34)cs2)c(Br)c1 [PTC209, N-(2,6-dibromo-4-methoxyphenyl)-4-(2-methylimidazo[1,2-a]pyrimidin-3-yl)thiazol-2-amine]
[1]; [2]
  Hes1 transcript (Notch pathway): downregulated
  Serpin1 transcript (TGFβ signalling): upregulated
[1]; [3]
  Axin2 transcript (β-catenin pathway): downregulation
  Id1 transcript (TGFβ signalling): downregulation
[1]; [4]
  Axin2 transcript (β-catenin pathway): downregulation
  Id1 transcript (TGFβ signalling): downregulation
LEF1
  LEF1 (immunofluorescence): reduced
